In PubChem BioAssay (NCI):
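A five-concentration, 48-hour dose response in 96-well plates underlies each endpoint, interpolated linearly between surrounding concentrations. GI50 marks 50% less growth. Definition used: TGI = concentration required for complete inhibition of growth.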

How the values were obtained:
Assay in all cases: NCI tumour cell line growth inhibition, 48 h
COLO 205 colon = system: COLO 205 colon
CCRF-CEM leukemia = system: CCRF-CEM leukemia
SK-MEL-28 melanoma = system: SK-MEL-28 melanoma
NCI-H460 lung = system: NCI-H460 lung
HCT-116 colon = system: HCT-116 colon
U251 CNS = system: U251 CNS
SNB-19 CNS = system: SNB-19 CNS
HL-60(TB) leukemia = system: HL-60(TB) leukemia

| SMILES | TGI (COLO 205 colon) [µM] | TGI (CCRF-CEM leukemia) [µM] | TGI (SK-MEL-28 melanoma) [µM] | TGI (NCI-H460 lung) [µM] | TGI (HCT-116 colon) [µM] | TGI (U251 CNS) [µM] | TGI (SNB-19 CNS) [µM] | TGI (HL-60(TB) leukemia) [µM] | GI50 (CCRF-CEM leukemia) [µM] | GI50 (HL-60(TB) leukemia) [µM] |
| --- | --- | --- | --- | --- | --- | --- | --- | --- | --- | --- |
| CN(C)NC(=O)NC12CC3CC(CC(C3)C1)C2 | > 100 | > 100 | > 10 | > 100 | > 100 | > 100 | > 100 | > 100 | – | – |
| CC(=O)O[C@H]1CSC[C@@H](OC(C)=O)C1[N+](=O)[O-] (stereo not given in full) | 49.1 | 44.4 | 69.4 | > 100 | > 100 | > 100 | > 100 | 54.6 | – | – |
| CCOC(=O)C(Oc1ccc(OC)c2c1C(=O)CCC2)c1ccccc1 (stereo not given) | > 100 | > 100 | > 100 | > 100 | > 100 | > 100 | > 100 | > 100 | – | – |
| CCN(CC)c1ccc(N=Nc2ccc(-c3nc4cccnc4s3)cc2)cc1 | > 100 | > 100 | > 100 | > 100 | > 100 | > 100 | > 100 | > 100 | – | – |
| NN=C1/C(=C\c2ccccc2)CCC/C1=C/c1ccccc1 | 71.4 | 45 | > 100 | > 100 | > 100 | > 100 | > 100 | 45.1 | – | – |
| CN(C(=O)C12C3C4C1C1C2C3C41C#N)C(C)(C)C (stereo not given) | > 100 | > 100 | > 100 | > 100 | > 100 | > 100 | > 100 | > 100 | – | – |
| O=C1CCNC/C1=C\c1ccccc1 | > 100 | – | 35.1 | > 100 | 47.4 | 38 | 46.4 | 47.7 | – | – |
| Nc1ncc(CN2CCCC2)c(-c2ccccc2O)n1 | > 750 | – | > 750 | > 750 | > 750 | > 750 | > 750 | – | > 750 | > 750 |
| CC1=Nc2ccccc2S/C1=C1/C=NC(=NC#N)N=C1C(=O)Nc1cccc(Cl)c1 | > 100 | > 100 | > 100 | > 100 | > 100 | > 100 | > 100 | – | – | – |
| O=C(CC1(O)C(=O)Nc2ccccc21)c1cccc(O)c1 (stereo not given) | > 100 | – | > 100 | > 100 | > 100 | – | > 100 | > 100 | – | – |
| N#C/C(=C/c1ccc([N+](=O)[O-])o1)c1ccccc1 | > 100 | > 100 | > 100 | > 100 | > 100 | > 100 | > 100 | > 100 | – | – |
| CCn1c(=O)nc2n(-c3ccc(SC)cc3)c3ccccc3nc-2c1=O | > 100 | > 100 | > 100 | > 100 | – | > 100 | > 100 | > 100 | – | – |
| COc1cccc(NC(=O)/C(CS(=O)(=O)CCC(C(C)=O)C(C)=O)=N\NC(C)(C)C)c1 | > 100 | > 100 | > 100 | > 100 | > 100 | > 100 | > 100 | > 100 | – | – |
| CCNC(=O)O/N=C1\CCC2[C@@H]3CC=C4C[C@@H](OC(=O)NCC)CC[C@]4(C)C3CC[C@]12C (stereo not given in full) | 1.73 | – | 12.1 | 10 | 13.7 | 9.6 | 14.1 | – | – | – |
| CC(=O)OC1(C(C)=O)CC2(c3ccccc3)OC1(c1ccccc1)c1ccccc12 (stereo not given) | 21.4 | – | > 100 | > 100 | > 100 | > 100 | > 100 | – | – | – |
| O=C1c2c(c3c4ccccc4n(CC4CO4)c3c3[nH]c4ccccc4c23)C(=O)N1Cc1ccccc1 (stereo not given) | – | > 100 | > 100 | > 100 | > 100 | > 100 | > 100 | > 100 | – | – |
| N#Cc1c(N)oc2cc3c(C#N)c(N)oc3cc12 | > 100 | > 100 | > 100 | > 100 | – | > 100 | > 100 | > 100 | – | – |
| Cc1ccccc1NC(=O)C(=O)C(C(=O)c1ccccc1F)C1OC(=O)c2ccccc21 (stereo not given) | 45.1 | 62.4 | 35.8 | > 100 | 29.1 | 60.6 | 94.8 | 56.5 | – | – |
| O=C1N(c2ccc(Cl)cc2)C(=O)C2(SC=NN2Cc2ccccc2)N1c1ccc(Cl)cc1 (stereo not given) | – | > 100 | > 100 | > 100 | > 100 | > 100 | > 100 | > 100 | – | – |
| C#Cc1c(C)c(/C=C/C(C)=C\C(=O)OC)n(C)c1C | > 100 | > 100 | – | > 100 | – | > 100 | > 100 | > 100 | – | – |
| N#Cc1sc2nc3c(c(-c4ccccc4)c2c1N)CCCC3 | – | > 100 | > 100 | > 100 | > 100 | > 100 | > 100 | > 100 | – | – |
| COc1cc(O)c(C(=O)C2Cc3ccccc32)c(OC)c1 (stereo not given) | > 100 | > 100 | – | > 100 | > 100 | > 100 | > 100 | 39.7 | – | – |
